# Read-outs that look alike come from different tables or passages of the source.
# Columns and labels:
# Ehrlich ascites cells = test: Ehrlich Ascites tumor screen for antineoplastic activity; type: in vivo; conditions: 20 mg/kg/day intraperitoneally, days 1-9; CF male mice; day 10
# Procedure: Use of compounds according to this invention in Ehrlich Ascites tumor screens for antineoplastic activity has been investigated.
# CF male mice (~25 g) were inoculated intraperitoneally on day 0 with 2×10^6 Ehrlich ascites cells. Compositions containing compounds of this invention were prepared in 0.05% polysorbate 80 by homogenation and injected intraperitoneally on days 1-9 at 20 mg/kg/day. On day 10, the mice were sacrificed and the cells from the peritoneal cavity harvested. The total ascites tumor and packed cell (ascrit) volumes were determined and used to calculate the percent inhibition according to the procedure described in C. Piantadosi et al., J. Pharm. Sci., 58, p. 821 (1969). […] Mercaptopurine and mephalan were used as positive controls in the screen. Other pharmaceutically acceptable carriers, diluents, adjuvants or dosages are readily ascertainable by the skilled artisan.
# [1] = Thermal stability / vacuum distillation; type: physicochemical; conditions: for thermal stability: higher temperature (>100° C.); for decomposition when subjected to vacuum distillation: oil-bath temperatures >100° C.
# Procedure: The parent compound 1, trimethylamine-(ethylcarbamoyl)borane was prepared as previously described in B. F. Spielvogel et al., J. Am. Chem. Soc., 98 p. 5702 (1976) and I. H. Hall et al., J. Pharm. Sci., 68, p. 685 (1979) by refluxing (under dry N2) a solution of Me3 N.BH2 CN in CH2 Cl2 with 2 equivalents of triethyloxonium tetrafluoroborate for 24 hours. The compounds Me3 N.BH2 CN and triethyloxonium tetrafluoroborate are referred to in P. Wisian-Neilson et al., Inorg. Chem. 17, p. 2327 (1978) and H. Meerwein, Org. Synth., 46, p. 113 (1966), respectively. The resulting ethylnitrilium salt (not isolated) was hydrolyzed at 0° C. with 1N NaOH until basic and finally purified by vacuum distillation, giving a 75% yield. Dimethylamine-(ethylcarbamoyl)borane was made from 1 by a (CH3)2NH-exchange reaction in a pressure-glass vessel at room temperature for 8 days, and ca. 80% conversion (by ^1 H NMR) was obtained. Longer reaction periods (2-3 weeks) gave similar results. Amide 2 is readily purified by washing a CH2 Cl2 solution of the crude mixture with a small quantity of water whereby 1 is removed. The bulk CH2 Cl2 solution containing the product was dried, and rotary evaporation of the solvent gave 78% yield. Finally, the product was distilled under reduced pressure to get an analytical sample. […] The methylamine-(ethylcarbamoyl)borane and ammonia-(ethylcarbamoyl)borane were similarly prepared from 1 by exchange reactions with CH3 NH2 and NH3, respectively, in a glass pressure reaction vessel at room temperature for 1 week. The crude amide was purified by recrystallization from CH2 Cl2 /pentane, giving a 65% yield, whereas the ammonia analogue was recrystallized from distilled water, giving a 60% yield.
# tumor = conditions: in mice; cited from earlier work
# [2] = animal model studies; cited from earlier work
# [3] = animal model studies; cited from earlier work; remark: listed apart in the source
# [4] = in mice; cited from earlier work
# Toxicity in BALB/C mice = type: in vivo
# Harding-Passey melanorna = test: Tissue distribution study of boron (boron neutron capture therapy); type: in vivo, BALB/c mice; conditions: for Boron uptake, blood / Boron uptake, brain / Boron uptake, tumor: single saline i.p. injection, 40 μg boron per gram body weight
# Procedure: (§1) In a tissue distribution study relating to treatment of tumor tissue in an animal by boron neutron capture therapy, a representative compound of this invention MeNH2.BH2 C(O)NHEt was administered in a single saline intraperitoneal injection sufficient to provide 40 μg boron per gram body weight to BALB/c mice carrying Harding-Passey melanorna.
# [5] = as above; type: in vivo, BALB/c mice; conditions: mouse, ip, 40 mg/kg, single saline i.p. injection, 40 μg boron per gram body weight; for concentration at 1 h: 1 hr post injection
# Procedure: as §1
# [6] = 1 hr post injection, 40 mg/kg, 60 min
compound,measurement,setting,value
"CCNC(=O)[BH2-][NH+](C)C [Me2 NH.BH2 C(O)NHEt, Dimethylamine-(Ethylcarbamoyl)borane]",percent inhibition (ascites tumor and packed cell volumes),Ehrlich ascites cells,72.2%
same,thermal stability,[1],thermally unstable
same,decomposition when subjected to vacuum distillation,[1],considerable decomposition
"CCNC(=O)[BH2-][N+](C)(C)C [Trimethylamine-(ethylcarbamoyl)borane, Trimethylamine-(Ethylcarbamoyl)borane]",antitumor activity,tumor,significant
same,antiarthritic activity,[2],significant
same,thermal stability,[1],thermally unstable
same,decomposition when subjected to vacuum distillation,[1],considerable decomposition
same,antiinflammatory activity,[3],significant
same,antihyperlipidemic activity,[4],significant
"CCNC(=O)[BH2-][NH2+]C [MeNH2.BH2 C(O)NHEt, Methylamine-(ethylcarbamoyl)borane]",toxicity,Toxicity in BALB/C mice,not toxic
same,percent inhibition (ascites tumor and packed cell volumes),Ehrlich ascites cells,91%
same,"Boron uptake, blood",Harding-Passey melanorna; [6],54.4 μg B per gram tissue
same,"Boron uptake, brain",Harding-Passey melanorna; [6],39.8 μg B per gram tissue
same,"Boron uptake, tumor",Harding-Passey melanorna; [6],48.7 μg B per gram tissue
same,"Boron uptake, blood",Harding-Passey melanorna; 12 hr post injection,0 μg B per gram tissue
same,"Boron uptake, brain",Harding-Passey melanorna; 12 hr post injection,0 μg B per gram tissue
same,"Boron uptake, tumor","Harding-Passey melanorna; 12 hr post injection, 40 mg/kg, 720 min",2.8 μg B per gram tissue
same,"uptake for conventional therapy, measured against the standard in clinical use Na2 B12 H11 SH",Harding-Passey melanorna; in words,inadequate
same,concentration of the boron-containing compound in the tumor tissue,"Harding-Passey melanorna; in words, BALB/c mice",some preferential differential concentration
same,concentration at 1 h,"[5]; blood, read-out: Boron uptake, blood",54800 ng/g
same,concentration at 1 h,"[5]; brain, read-out: Boron uptake, brain",45300 ng/g
same,concentration at 1 h,"[5]; tumor, read-out: Boron uptake, tumor",51300 ng/g
same,concentration at 12 h,"[5]; tumor, 12 hr post injection, read-out: Boron uptake, tumor",3800 ng/g
same,solubility,Solubility,good
C[N+](C)(C)[BH2-]C(=O)O [Me3 N.BH2 COOH],antitumor activity,tumor,significant
same,antihyperlipidemic activity,[4],significant
